The values below come from PubChem BioAssay AID504893 (The Scripps Research Institute Molecular Screening Center, 2011).

For this experiment, the target named is cAMP-dependent protein kinase type II-beta regulatory subunit (Homo sapiens) (UniProt P31323). Kind of experiment: activators of PKA-R2B holoenzyme, dose response, selectivity assay for PKA-R1A activator project, biochemical, fluorescence polarization, EC50, human R2B (AID 504893). The note with it: Cy5-IP20 fluorescence polarization activation.
Chain of cAMP-dependent protein kinase type II-beta regulatory subunit (Homo sapiens) (P31323 whole entry, looked up): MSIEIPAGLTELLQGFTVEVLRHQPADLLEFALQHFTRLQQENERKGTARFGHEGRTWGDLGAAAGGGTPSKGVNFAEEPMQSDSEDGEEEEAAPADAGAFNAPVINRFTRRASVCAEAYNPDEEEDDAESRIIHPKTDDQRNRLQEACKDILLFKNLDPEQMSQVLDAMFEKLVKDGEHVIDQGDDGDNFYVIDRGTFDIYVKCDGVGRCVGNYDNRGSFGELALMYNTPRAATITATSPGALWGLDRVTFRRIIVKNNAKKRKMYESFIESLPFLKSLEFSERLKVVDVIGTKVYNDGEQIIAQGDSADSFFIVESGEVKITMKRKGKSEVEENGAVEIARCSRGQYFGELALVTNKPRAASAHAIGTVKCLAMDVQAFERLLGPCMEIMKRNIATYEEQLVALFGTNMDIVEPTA
In the case of `CCCC(=O)Nc1ncnc2c1ncn2[C@@H]1O[C@@H]2OP(=O)(O)OC[C@H]2[C@H]1OC(=O)CCC`, the EC50 is 9100 nM.

In the case of `Nc1ncnc2c1nc(Br)n2[C@@H]1O[C@@H]2COP(=O)(O)O[C@H]2[C@H]1O`, the half-maximal effective concentration (EC50) was 51.1 nM.

Take `CCOP1(=O)OCC2OC(n3cnc4c(N)ncnc43)C(O)C2O1` (stereo not given): the EC50 was 3750 nM.

`Nc1ncnc2c1nc(Sc1ccc(Cl)cc1)n2[C@@H]1O[C@@H]2COP(=O)(O)O[C@H]2[C@H]1O`: the EC50 is 50.5 nM.

In the case of `Nc1nc2c(nc(Br)n2[C@@H]2O[C@@H]3COP(=O)(O)O[C@H]3[C@H]2O)c(=O)[nH]1`, the EC50 was 2160 nM.
